Tests used:
[1] = test system: Tspan4-GFP-expressing NRK cells; settings: sodium chloride in DPBS replaced by chloride of the cation at equal molar concentration; five-step hypotonic stimulation
Description: Next, the effect of different cations on the formation of engineered migrasomes was tested.

[2] = test system: Tspan4-GFP-expressing NRK cells; assay: Formation of engineered migrasomes after latrunculin A treatment and step-wise hypotonic stimulation; assay type: cell-based, rat; settings: latrunculin A 0.25, 0.5, 1 μM in DPBS 10 min, then three-step hypotonic stimulation; promotion dose-dependent
Description: The results after step-wise hypotonic treatment were shown in FIG. 2A, and the statistical results of the number of engineered migrasomes produced per cell were shown in FIG. 2B.

Row | Structure (SMILES) | ability to promote the formation of engineered migrasomes [1] | number of engineered migrasomes produced per cell [2]
1 | [Cl-].[Cs+] [cesium ions, cesium chloride] | significantly stronger ability | –
2 | C[N+](C)(C)CCO.[Cl-] [choline ions, choline chloride] | significantly stronger ability | –
3 | C/C1=C/C(=O)O[C@@H]2C[C@@H](CC[C@H](C)/C=C\C=C\CC1)O[C@@](O)([C@@H]1CSC(=O)N1)C2 [latrunculin A] | – | significantly promote an increase in the number of engineered migrasomes
4 | [Cl-].[K+] [potassium ions, potassium chloride] | significantly stronger ability | –
5 | [Cl-].[Na+] [sodium ions, sodium chloride] | relatively weak ability | –

Source: patent US12221631B2, “Engineered migrasome, method for preparing same, and uses thereof” (priority 2021, dated 2025)
